Measured values: patent publication US5879896A, “Method of screening for inhibitors of human thyrotropin releasing hormone (TRH) receptor” (Takeda Chemical Industries, Ltd., priority 1993, dated 1999)
Where two headings read alike, the source gives them in different places.

Columns and labels:
pituitary glands = details: literature; cited from earlier work
human TRH receptor [1] = target: T1, human TRH receptor (Homo sapiens, UniProt P34981); assay: c-fos promoter / secretive alkaline phosphatase assay in human TRH receptor expression CHO cells (Example 9); assay type: cell-based; parameters: translation frame (open reading frame) of the human TRH receptor was constructed on pUC118; expressed in transfected cells; host or cells: CHO dhfr- cells (plasmid pAKKO1.11 with the human TRH receptor open reading frame); details: c-fos promoter activation, overnight (FIG. 14)
T1 sequence (P34981 1-398): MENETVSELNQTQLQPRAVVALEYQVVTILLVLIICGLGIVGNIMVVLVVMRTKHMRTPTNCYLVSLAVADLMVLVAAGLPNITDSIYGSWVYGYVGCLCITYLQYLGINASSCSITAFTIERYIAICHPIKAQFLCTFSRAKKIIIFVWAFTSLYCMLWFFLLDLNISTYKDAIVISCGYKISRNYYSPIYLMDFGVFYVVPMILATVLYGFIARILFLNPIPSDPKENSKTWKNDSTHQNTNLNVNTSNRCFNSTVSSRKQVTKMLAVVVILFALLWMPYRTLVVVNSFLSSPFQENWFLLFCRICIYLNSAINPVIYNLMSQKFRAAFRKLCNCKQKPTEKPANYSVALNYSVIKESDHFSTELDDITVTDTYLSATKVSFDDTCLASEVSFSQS
Experimental: An insertion of a secretive alkaline phosphatase gene linked to a c-fos promoter into a TRH receptor expression cell was conducted as follows:
5×10^5 TRH receptor expression CHO cells were inoculated onto a 10 cm plate and they were cultivated for 24 hours in Ham's F12 medium (Lifetech Oriental) equipped with 10% fetal bovine serum. 3 μg of a vector (pSVP4-Ap-neo, FIG. 13) which was introduced by a secretive alkaline phosphatase gene downstream from the c-fos promoter was introduced into the CHO cells using a gene introducing kit (Cell Phect, Pharmacia) by calcium phosphate method. The cells introduced by the vector were cloned in the above-described medium equipped with 500 μg/ml of G418. 39 clones were isolated and clones which have high TRH responsiveness were further selected.
Cell stimulating activity through a TRH receptor using activation of c-fos promoter as an indicator was assayed as follows:
Each 5×10^4 of the above-described transformants were inoculated onto 96 hole plates for tissue cultivation (Corning) and they were cultivated for a night. […] The plate was assayed by a fluorescence plate reader (Fluoroskan II, Titertek) at 365 nm of excitation and 450 nm of luminescence.

human TRH receptor [2] = target: T1, human TRH receptor; assay: Antagonism of [3H]TRH binding in CHO dhfr- cells transformed with human TRH receptor DNA (Examples 5 and 6); parameters: translation frame (open reading frame) of the human TRH receptor was constructed on pUC118; expressed in transfected cells; host or cells: CHO dhfr- cells (plasmid pAKKO1.11 with the human TRH receptor open reading frame); details: 1 h
human TRH receptor [3] = target: T1, human TRH receptor; assay: Release of [3H]-labeled arachidonic acid from CHO cells into which human TRH receptor DNAs were introduced (Example 7); assay type: cell-based; parameters: translation frame (open reading frame) of the human TRH receptor was constructed on pUC118; expressed in transfected cells; host or cells: CHO dhfr- cells (plasmid pAKKO1.11 with the human TRH receptor open reading frame); details: TRH concentration dependence, compared with control (HBSS alone) (FIG. 10)
Experimental: (§1) CHO cells into which the human TRH receptor DNAs obtained in Example 4 were subcultured at a density of 1.0×10^6 cells/well to a 12-well tissue culture plate (Sumitomo Bakelite) and cultivated for 24 hours. The medium was removed and replaced by a fresh medium. Then, [^3 H] […] arachidonic acid (du Pont/NEN, specific activity: 60-100 Ci/mmol) was added to give a concentration of 0.5 μCi/well. After addition of arachidonic acid, the cells were further cultivated for 24 hours, and washed three times with Hanks' balanced salt solution (HBSS) supplemented with 0.05% BSA. Thereafter, 495 μl/well of HBSS supplemented with 0.05% BSA was added thereto. Then, 5 μl of a test solution was added thereto, and incubation was conducted for 30 minutes at room temperature to release arachidonic acid in the medium. HBSS (400 μl) of the supernatant was recovered, and mixed with liquid scintillator A (Wako Pure Chemical Industries). The amount of released [^3 H]-labeled arachidonic acid was measured by use of a liquid scintillation counter (Beckmann).
Further, in the receptor binding experiment of Example 6, the releasing activity of arachidonic acid was measured using 4 kinds of compounds strongly that can antagonize the binding of [^3 H]

CHO dhfr- cells = assay: Release of [3H]-labeled arachidonic acid from control CHO dhfr- cells (Example 7); assay type: cell-based, Chinese hamster; details: TRH added (FIG. 10)
Experimental: as §1

human TRH receptor [4] = target: T1, human TRH receptor; assay: [3H]TRH binding to Sf9 cells infected with recombinant baculovirus carrying human TRH receptor genes (Example 3); parameters: translation frame (open reading frame) of the human TRH receptor was constructed on pUC118; expressed in transfected cells; details: 1000-fold unlabeled TRH (10 μM) (FIG. 8)
[5] = read-out: Antagonistic Rate (%) at Each Concentration (-log M)
[6] = read-out: Antagonistic Rate (%) at Each Concentration (-log M) (*1)

In the case of NC(=O)[C@@H]1CCCN1C(=O)[C@H](Cc1cnc[nH]1)NC(=O)[C@@H]1CCC(=O)N1 [TRH, pGlu His Pro NH2], the “Secretion of pituitary hormones, in words” value (pituitary glands) is listed as “promoting secretion of thyroid stimulating hormone and prolactin of the pituitary glands”, the “Alkaline phosphatase secretion into supernatant, in words” value (human TRH receptor [1]) is listed as “alkaline phosphatase secrets into the supernatant depending on the concentration of TRH added” and the inhibition at 1 pM (human TRH receptor [2]; [5]) is listed as 0%. For the same molecule, the inhibition at 10 pM (human TRH receptor [2]; [5]) was 0.7%, the inhibition at 0.0001 µM (human TRH receptor [2]; [5]) was 0.3% and the inhibition at 0.001 µM (human TRH receptor [2]; [5]) was 7.2%. For the same molecule, the inhibition at 0.01 µM (human TRH receptor [2]; [5]) was 52%, the inhibition at 0.1 µM (human TRH receptor [2]; [5]) was 90.7% and the inhibition at 1 µM (human TRH receptor [2]; [5]) was 98.7%. The inhibition at 10 µM (human TRH receptor [2]; [5]) was 99.7%, the inhibition at 0.0001 µM (human TRH receptor [2]; [6]) was -0.7% and the inhibition at 0.001 µM (human TRH receptor [2]; [6]) was 4.2%. The inhibition at 0.01 µM (human TRH receptor [2]; [6]) was 39.8%, the inhibition at 0.1 µM (human TRH receptor [2]; [6]) was 83.9% and the inhibition at 1 µM (human TRH receptor [2]; [6]) was 97.8%. The inhibition at 10 µM (human TRH receptor [2]; [6]) was 99.7%, the “Amount of arachidonic acid released, in words” value (human TRH receptor [3]) was “increase the amount of arachidonic acid released depending upon the concentration” and the “Amount of arachidonic acid released, in words” value (CHO dhfr- cells) was “no change was observed”. For the same molecule, the “Antagonism of [3H]TRH binding by unlabeled TRH, in words” value (human TRH receptor [4]) was “antagonized the binding”.
